Reference: patent US8697739B2, “Bicyclic acetyl-CoA carboxylase inhibitors and uses thereof” (Novartis AG, priority 2010, dated 2014)

Target: T1, human acetyl-CoA carboxylase 2 (ACC2) (Homo sapiens, UniProt O00763)
T1 construct: The cDNA encoding amino acids 144 to 2458 of human acetyl-CoA carboxylase 2; made in house; host or cells: Sf9 insect cells (baculovirus, pFastBac1)
Assay: Acetyl-CoA carboxylase enzyme assay (malonyl-CoA formation by LC/MS/MS)
Type: biochemical
Conditions: recombinant human ACC2 (aa 144-2458); read-out: IC50 ACC2
Summary of the method: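 Malonyl-CoA formation was read by LC/MS/MS MRM against a [13C3]-malonyl-CoA internal standard, after acetic acid quench. The enzyme was baculovirus/Sf9-expressed human ACC2 residues 144–2458, given 15 minutes room-temperature compound preincubation in HEPES pH 7.5 buffer with MgCl2, citrate and DTT. Substrate solution held 50 μM acetyl-CoA, 120 μM ATP and 2 mM KHCO3.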

T1 sequence (O00763 144-2458): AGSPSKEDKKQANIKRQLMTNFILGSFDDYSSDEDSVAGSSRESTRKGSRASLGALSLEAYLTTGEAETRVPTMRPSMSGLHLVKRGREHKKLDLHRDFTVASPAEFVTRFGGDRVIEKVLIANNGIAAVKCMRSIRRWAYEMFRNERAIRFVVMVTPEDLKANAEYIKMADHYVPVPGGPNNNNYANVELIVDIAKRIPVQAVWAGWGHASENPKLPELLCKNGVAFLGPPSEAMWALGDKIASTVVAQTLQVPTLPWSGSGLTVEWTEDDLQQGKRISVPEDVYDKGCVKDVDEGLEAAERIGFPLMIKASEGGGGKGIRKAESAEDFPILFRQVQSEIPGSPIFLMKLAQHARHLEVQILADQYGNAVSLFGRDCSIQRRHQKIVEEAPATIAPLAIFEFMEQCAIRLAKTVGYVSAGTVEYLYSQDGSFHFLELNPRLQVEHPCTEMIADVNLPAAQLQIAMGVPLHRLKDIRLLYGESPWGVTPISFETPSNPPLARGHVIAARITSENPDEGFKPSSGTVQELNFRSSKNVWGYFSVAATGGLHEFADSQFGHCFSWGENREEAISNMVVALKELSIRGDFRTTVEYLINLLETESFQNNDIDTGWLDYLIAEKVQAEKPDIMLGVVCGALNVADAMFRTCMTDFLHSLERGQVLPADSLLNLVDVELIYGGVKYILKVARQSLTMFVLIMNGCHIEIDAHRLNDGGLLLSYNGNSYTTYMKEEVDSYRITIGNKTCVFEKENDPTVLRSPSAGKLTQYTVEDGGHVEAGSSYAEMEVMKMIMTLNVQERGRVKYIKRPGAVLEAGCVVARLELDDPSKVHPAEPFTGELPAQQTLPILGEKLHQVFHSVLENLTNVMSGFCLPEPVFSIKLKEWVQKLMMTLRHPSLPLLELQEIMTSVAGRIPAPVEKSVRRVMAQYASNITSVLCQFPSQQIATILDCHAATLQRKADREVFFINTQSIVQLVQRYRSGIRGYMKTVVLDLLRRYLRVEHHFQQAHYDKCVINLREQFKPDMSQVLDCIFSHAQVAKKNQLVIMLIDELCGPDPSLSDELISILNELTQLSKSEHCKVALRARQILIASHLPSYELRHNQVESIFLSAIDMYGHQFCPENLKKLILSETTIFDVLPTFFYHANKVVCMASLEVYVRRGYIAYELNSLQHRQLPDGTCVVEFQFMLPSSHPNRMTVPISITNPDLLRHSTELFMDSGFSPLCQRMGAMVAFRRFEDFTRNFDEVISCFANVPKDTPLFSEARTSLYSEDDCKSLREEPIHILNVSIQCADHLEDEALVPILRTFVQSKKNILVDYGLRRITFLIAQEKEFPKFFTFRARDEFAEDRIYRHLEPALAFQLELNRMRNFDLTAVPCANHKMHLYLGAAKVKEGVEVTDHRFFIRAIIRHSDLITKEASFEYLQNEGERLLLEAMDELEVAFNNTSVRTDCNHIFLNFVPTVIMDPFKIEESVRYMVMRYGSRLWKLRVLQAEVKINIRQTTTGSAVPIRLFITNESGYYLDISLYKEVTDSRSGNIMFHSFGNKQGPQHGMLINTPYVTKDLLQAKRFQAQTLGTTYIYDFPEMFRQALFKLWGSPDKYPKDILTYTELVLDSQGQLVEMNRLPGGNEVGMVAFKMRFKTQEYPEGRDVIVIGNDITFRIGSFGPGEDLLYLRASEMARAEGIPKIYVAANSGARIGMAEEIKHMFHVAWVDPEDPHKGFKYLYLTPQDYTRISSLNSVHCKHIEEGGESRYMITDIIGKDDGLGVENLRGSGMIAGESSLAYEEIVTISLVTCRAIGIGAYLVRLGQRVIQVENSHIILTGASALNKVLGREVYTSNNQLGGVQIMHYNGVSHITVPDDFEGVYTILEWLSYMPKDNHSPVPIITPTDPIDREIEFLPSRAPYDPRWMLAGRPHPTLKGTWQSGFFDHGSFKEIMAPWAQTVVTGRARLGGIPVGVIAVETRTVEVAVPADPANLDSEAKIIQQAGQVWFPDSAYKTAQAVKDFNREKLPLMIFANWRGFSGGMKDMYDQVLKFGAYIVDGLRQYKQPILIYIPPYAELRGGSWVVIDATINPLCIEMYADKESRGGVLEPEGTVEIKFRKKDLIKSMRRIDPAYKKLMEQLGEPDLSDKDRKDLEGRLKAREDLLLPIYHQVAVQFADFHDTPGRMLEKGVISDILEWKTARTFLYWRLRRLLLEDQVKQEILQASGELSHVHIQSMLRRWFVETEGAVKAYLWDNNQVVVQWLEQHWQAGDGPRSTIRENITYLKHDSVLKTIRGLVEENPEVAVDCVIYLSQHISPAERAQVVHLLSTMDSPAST

| IC50 [µM] | SMILES |
| --- | --- |
| 0.075 | CC(C)(C)OC(=O)N1CCN(C(=O)C2CCC(NS(=O)(=O)c3ccc4c(c3)CCCN4)CC2)C(c2ccccc2)C1 (stereo not shown) [Example 173, tert-butyl 3-phenyl-4-((1r,4r)-4-(1,2,3,4-tetrahydroquinoline-6-sulfonamido)cyclohexanecarbonyl)piperazine-1-carboxylate] |
| 0.045 | CC(C)(C)OC(=O)N1CCN(C(=O)[C@H]2CC[C@H](NS(=O)(=O)c3ccc4c(c3)NCCC4)CC2)C(c2ccccc2)C1 (stereo partly shown) [Example 174, tert-butyl 3-phenyl-4-((1r,4r)-4-(1,2,3,4-tetrahydroquinoline-7-sulfonamido)cyclohexanecarbonyl)piperazine-1-carboxylate] |
| 0.12 | O=C([C@H]1CC[C@H](NS(=O)(=O)c2ccc3c(c2)CCCN3)CC1)N1CCNCC1c1ccccc1 (stereo partly shown) [Example 175, N-((1r,4r)-4-(2-phenylpiperazine-1-carbonyl)cyclohexyl)-1,2,3,4-tetrahydroquinoline-6-sulfonamide] |
| 0.105 | O=C([C@H]1CC[C@H](NS(=O)(=O)c2ccc3c(c2)NCCC3)CC1)N1CCNCC1c1ccccc1 (stereo partly shown) [Example 176, N-((1r,4r)-4-(2-phenylpiperazine-1-carbonyl)cyclohexyl)-1,2,3,4-tetrahydroquinoline-7-sulfonamide] |
| 0.09 | O=C([C@H]1CC[C@H](NS(=O)(=O)c2ccc3c(c2)CCCN3)CC1)N1CCOCC1c1ccccc1 (stereo partly shown) [Example 177, N-((1r,4r)-4-(3-phenylmorpholine-4-carbonyl)cyclohexyl)-1,2,3,4-tetrahydroquinoline-6-sulfonamide] |
| 0.055 | O=C([C@H]1CC[C@H](NS(=O)(=O)c2ccc3c(c2)NCCC3)CC1)N1CCOCC1c1ccccc1 (stereo partly shown) [Example 178, N-((1r,4r)-4-(3-phenylmorpholine-4-carbonyl)cyclohexyl)-1,2,3,4-tetrahydroquinoline-7-sulfonamide] |
| 0.433 | CC(C)(C)OC(=O)N1CCN(C(=O)[C@H]2CC[C@H](NS(=O)(=O)c3ccc4c(c3)CCC(C(F)(F)F)N4)CC2)C(c2ccccc2)C1 (stereo partly shown) [Example 179, tert-butyl 3-phenyl-4-((1r,4r)-4-(2-(trifluoromethyl)-1,2,3,4-tetrahydroquinoline-6-sulfonamido)cyclohexanecarbonyl)piperazine-1-carboxylate] |
| 0.138 | CN1CCN(C)c2ncc(S(=O)(=O)N[C@H]3CC[C@H](C(=O)N4CCN(C(=O)OCc5ccccc5)CC4c4ccccc4)CC3)cc21 (stereo partly shown) [Example 180, benzyl 4-((1r,4r)-4-(1,4-dimethyl-1,2,3,4-tetrahydropyrido[3,2-b]pyrazine-7-sulfonamido)cyclohexanecarbonyl)-3-phenylpiperazine-1-carboxylate] |
| 0.115 | O=C(OCc1ccccc1)N1CCN(C(=O)[C@H]2CC[C@H](NS(=O)(=O)c3cnc4c(c3)NCCN4)CC2)C(c2ccccc2)C1 (stereo partly shown) [Example 181, benzyl 3-phenyl-4-((1r,4r)-4-(1,2,3,4-tetrahydropyrido[3,2-b]pyrazine-7-sulfonamido)cyclohexanecarbonyl)piperazine-1-carboxylate] |
| 0.685 | O=C([C@H]1CC[C@H](NS(=O)(=O)c2ccc3c(c2)CCC(C(F)(F)F)N3)CC1)N1CCNCC1c1ccccc1 (stereo partly shown) [Example 182, N-((1r,4r)-4-(2-phenylpiperazine-1-carbonyl)cyclohexyl)-2-(trifluoromethyl)-1,2,3,4-tetrahydroquinoline-6-sulfonamide] |
| 0.135 | CN1CCN(C)c2ncc(S(=O)(=O)N[C@H]3CC[C@H](C(=O)N4CCNCC4c4ccccc4)CC3)cc21 (stereo partly shown) [Example 183, 1,4-dimethyl-N-((1r,4r)-4-(2-phenylpiperazine-1-carbonyl)cyclohexyl)-1,2,3,4-tetrahydropyrido[3,2-b]pyrazine-7-sulfonamide] |
| > 35 | C[C@@H](NC(=O)[C@H]1CC[C@H](NS(=O)(=O)c2ccc3c(c2)C(NC(=O)C(F)(F)F)CCN3C(=O)C(F)(F)F)CC1)c1ccc(F)cc1 (stereo partly drawn) [Example 184, (1r,4R)-N-((R)-1-(4-fluorophenyl)ethyl)-4-(4-(2,2,2-trifluoroacetamido)-1-(2,2,2-trifluoroacetyl)-1,2,3,4-tetrahydroquinoline-6-sulfonamido)cyclohexanecarboxamide] |
| > 35 | C[C@@H](NC(=O)[C@H]1CC[C@H](NS(=O)(=O)c2ccc3c(c2)C(NC(=O)C(F)(F)F)CCN3)CC1)c1ccc(F)cc1 (stereo partly drawn) [Example 185, (1r,4R)-N-((R)-1-(4-fluorophenyl)ethyl)-4-(4-(2,2,2-trifluoroacetamido)-1,2,3,4-tetrahydroquinoline-6-sulfonamido)cyclohexanecarboxamide] |
| 0.245 | O=C([C@H]1CC[C@H](NS(=O)(=O)c2cnc3c(c2)NCCN3)CC1)N1CCNCC1c1ccccc1 (stereo partly shown) [Example 186, N-((1r,4r)-4-(2-phenylpiperazine-1-carbonyl)cyclohexyl)-1,2,3,4-tetrahydropyrido[3,2-b]pyrazine-7-sulfonamide] |
| 0.245 | O=C([C@H]1CC[C@H](NS(=O)(=O)c2ccc3c(c2)NC(C(F)(F)F)CC3)CC1)N1CCNCC1c1ccccc1 (stereo partly shown) [Example 187, N-((1r,4r)-4-(2-phenylpiperazine-1-carbonyl)cyclohexyl)-2-(trifluoromethyl)-1,2,3,4-tetrahydroquinoline-7-sulfonamide] |
| 0.375 | Cc1cc2c(cc1S(=O)(=O)N[C@H]1CC[C@H](C(=O)N[C@H](C)c3ccc(F)cc3)CC1)NCCC2 [Example 188, (1r,4R)-N-((R)-1-(4-fluorophenyl)ethyl)-4-(6-methyl-1,2,3,4-tetrahydroquinoline-7-sulfonamido)cyclohexanecarboxamide] |
| 0.075 | C[C@@H](NC(=O)C1CCC(NS(=O)(=O)c2cnc3c(c2)N[C@@H](Cc2ccccc2)CS3)CC1)c1ccc(F)cc1 (stereo partly drawn) [Example 189, 4-((S)-2-benzyl-2,3-dihydro-1H-pyrido[2,3-b][1,4]thiazine-7-sulfonamido)-N-((R)-1-(4-fluorophenyl)ethyl)cyclohexanecarboxamide] |
| 0.035 | C[C@@H](NC(=O)C1CCC(NS(=O)(=O)c2cnc3c(c2)N[C@H](Cc2ccccc2)CS3)CC1)c1ccc(F)cc1 (stereo partly drawn) [Example 190, 4-((R)-2-benzyl-2,3-dihydro-1H-pyrido[2,3-b][1,4]thiazine-7-sulfonamido)-N-((R)-1-(4-fluorophenyl)ethyl)cyclohexanecarboxamide] |
| 0.15 | O=C([C@H]1CC[C@H](NS(=O)(=O)c2cnc3c(c2)NCCN3)CC1)N1CCNC[C@@H]1c1ccccc1 [Example 191, N-((1S,4r)-4-((S)-2-phenylpiperazine-1-carbonyl)cyclohexyl)-1,2,3,4-tetrahydropyrido[3,2-b]pyrazine-7-sulfonamide] |
| 0.015 | O=C([C@H]1CC[C@H](NS(=O)(=O)c2cnc3c(c2)NCCS3)CC1)N1CCNC[C@@H]1c1ccccc1 [Example 192, N-((1S,4r)-4-((S)-2-phenylpiperazine-1-carbonyl)cyclohexyl)-2,3-dihydro-1H-pyrido[2,3-b][1,4]thiazine-7-sulfonamide] |
| 0.015 | O=C([C@H]1CC[C@H](NS(=O)(=O)c2cnc3c(c2)NCCS3)CC1)N1CCOCC1c1ccccc1 (stereo partly shown) [Example 193, N-((1r,4r)-4-(3-phenylmorpholine-4-carbonyl)cyclohexyl)-2,3-dihydro-1H-pyrido[2,3-b][1,4]thiazine-7-sulfonamide] |
| 0.21 | O=C([C@H]1CC[C@H](NS(=O)(=O)c2cnc3c(c2)NCCN3)CC1)N1CCOCC1c1ccccc1 (stereo partly shown) [Example 194, N-((1r,4r)-4-(3-phenylmorpholine-4-carbonyl)cyclohexyl)-1,2,3,4-tetrahydropyrido[3,2-b]pyrazine-7-sulfonamide] |
| 0.335 | C[C@@H](NC(=O)[C@H]1CC[C@H](NS(=O)(=O)c2ccc3c(c2)NC(=O)CC3(C)C)CC1)c1ccc(F)cc1 [Example 195, (1r,4R)-4-(4,4-dimethyl-2-oxo-1,2,3,4-tetrahydroquinoline-7-sulfonamido)-N-((R)-1-(4-fluorophenyl)ethyl)cyclohexanecarboxamide] |
| 0.22 | C[C@@H](NC(=O)[C@H]1CC[C@H](NS(=O)(=O)c2ccc3c(c2)NCCC3(C)C)CC1)c1ccc(F)cc1 [Example 196, (1r,4R)-4-(4,4-dimethyl-1,2,3,4-tetrahydroquinoline-7-sulfonamido)-N-((R)-1-(4-fluorophenyl)ethyl)cyclohexanecarboxamide] |
| 0.04 | C[C@@H](NC(=O)[C@]1(C)CC[C@@H](NS(=O)(=O)c2cnc3c(c2)NCCN3)CC1)c1ccc(F)cc1 [Example 197, (1r,4R)-N-((R)-1-(4-fluorophenyl)ethyl)-1-methyl-4-(1,2,3,4-tetrahydropyrido[3,2-b]pyrazine-7-sulfonamido)cyclohexanecarboxamide] |
| > 35 | C[C@H](NC(=O)[C@H]1CC[C@@H](NS(=O)(=O)c2cnc3c(c2)NCCN3)CC1)c1ccc(F)cc1 [Example 198, (1s,4S)-N-((R)-1-(4-fluorophenyl)ethyl)-4-(1,2,3,4-tetrahydropyrido[3,2-b]pyrazine-7-sulfonamido)cyclohexanecarboxamide] |
| 0.075 | [2H]C1([2H])Nc2cc(S(=O)(=O)NC3CCC(C(=O)N[C@H](C)c4ccc(F)cc4)CC3)cnc2NC1([2H])[2H] (stereo partly drawn) [Example 199, (R)-N-(1-(4-fluorophenyl)ethyl)-4-(2,2,3,3-tetradeuterio-1,2,3,4-tetrahydropyrido[3,2-b]pyrazine-7-sulfonamido)cyclohexanecarboxamide] |
| 0.06 | CC(C)COC(=O)N1CCNc2ncc(S(=O)(=O)N[C@H]3CC[C@H](C(=O)N[C@H](C)c4ccc(F)cc4)CC3)cc21 [Example 200, isobutyl 7-(N-((1R,4r)-4-((R)-1-(4-fluorophenyl)ethylcarbamoyl)cyclohexyl)sulfamoyl)-3,4-dihydropyrido[3,2-b]pyrazine-1(2H)-carboxylate] |
